From patent US9066947B2, “Indolyl-substituted pyrazino[1,2-b]isoquinolines for cancer treatment” (Everest Biosciences, Inc., priority 2009, dated 2015) come the findings set out here.

Format in all cases: cell-based, human
In assay [1] the test system is PC-3 prostate cancer cells. Briefly: Cell proliferation assay (trypan blue viable cell count) and IC50 determination. Conditions: PC-3 cells; for IC50: Homo sapiens, viable cells after 48 hours, read-out: IC50 for cell growth inhibition; for concentration from which statistically significant cell growth inhibition started: 48 hours. On the procedure:
All new synthesized compounds and Etoposide were first dissolved in 100% DMSO at initial concentration of 100 mM, and then diluted at final concentration of 200 uM in culture medium. Commercial form of Avastin (25 mg/ml) was diluted to appropriate concentrations in culture medium.
(§1) Hormone-independent and metastatic PC-3 prostate cancer cells were purchased from the American Type Culture Collection (Manassas, Va., USA) and cultured in RPMI-1640 supplemented with 10% fetal bovine serum. Etoposide was purchased from Sigma, Avastin from Roche.
For cell counting a total of 6×10^4 cells at a density of 0.3×10^6/ml were seeded in 96-well plate. The cells were treated with compounds, Etoposide or Avastin as positive controls at 1 uM, 5 uM, 10 uM, 20 uM, 50 uM, 100 uM for 48 hours. For Avastin 5 uM, 20 uM and 50 uM concentrations were used. The cells were labeled with trypan blue and the viable cells were quantified.

Assay [2] deals with PC-3 prostate cancer cells. Briefly: Annexin V-apoptosis assay. The following applies: 48 hours; for apoptotic cell number versus control and Etoposide: 50 uM and 100 uM. On the procedure:
as §1
Cells were treated with 50 uM and 100 uM compounds and Etoposide for 48 hours, harvested, washed with PBS and resuspended in binding buffer (0.01 M HEPES pH 7.4, 0.14 M NaCl, […] CaCl2) (BD Bioscience, san Jose, Calif., USA), stained with […] annexin V and 7-AAD (BD Bioscience). The cells were incubated for 15 min at room temperature in the dark, and the rate of apoptosis was measured by flow cytometry (Calibur, BD) and analyzed using FCS Express Professional software (De NoVo software, CA, USA).

Assay [3] deals with PC-3 prostate cancer cells. Briefly: Cell cycle analysis. On the procedure: as §1
Cells were harvested after the treatment, then fixed in ice-cold 70% EtOH. Cells then were washed with PBS and incubated in DNA staining buffer, containing 1 mg/ml sodium citrate (Sigma), 0.1 mg/ml propidium iodide (Sigma), 3 ul/ml TritonX-100, 0.02 mg/ml RNaseA (Sigma) for 30 min at 4° C. The cell cycle profiles were measured in a FACS Calibur cytofluorometer (BD) and analyzed using FCS Express Professional (De NoVo software, CA, USA) and Multicycle (Phoenix Flow Systems, Inc., CA, USA) softwares.

A word on the IC50: it is the midpoint of a concentration-inhibition curve. Regarding `CN1CC(=O)N2[C@H](c3c[nH]c4ccc(Cl)cc34)c3cc4c(cc3C[C@H]2C1=O)OCO4` [Analogue 1, (2S,8S)-2-(5-chloro-1H-indol-3-yl)-6-methyl-13,15-dioxa-3,6-diazatetracyclo-[8.7.0.0^3,8.0^12,16]heptadeca-1(10),11,16-triene-4,7-dione], in assay [1], the IC50 worked out at 36 µM. In addition, the “apoptotic cell number versus control and Etoposide” value in assay [2] was “increasing in both early and late apoptotic cell number”. In assay [2] (50 uM), the “Early apoptosis, %” value was 10.98%; the “Late apoptosis/necrosis, %” value is given as 4.23%; the “Total, % (apoptosis)” value is 15.21%. Besides, in assay [2] (100 uM), the “Early apoptosis, %” value stood at 16.83%; the “Late apoptosis/necrosis, %” value was found to be 8.29%; the “Total, % (apoptosis)” value was 25.12%. In assay [3] (50 uM), the “G0/G1, %” value is reported as 63.26% and the “S + G2 + M, %” value was determined as 36.74%. Moreover, in assay [3] (50 uM and 100 uM, analogue 3 statement at 100 uM), the G2/M phase blockage entry was “not”. Further, in assay [3] (100 uM), the “G0/G1, %” value is recorded as 60.44% and the “S + G2 + M, %” value is listed as 39.56%.
On to `COc1ccc2[nH]cc([C@@H]3c4cc5c(cc4C[C@H]4C(=O)N(C)CC(=O)N34)OCO5)c2c1` [Analogue 2, (2S,8S)-2-(5-methoxy-1H-indol-3-yl)-6-methyl-13,15-dioxa-3,6-diazatetracyclo[8.7.0.0^3,8.0^12,16]heptadeca-1(10),11,16-triene-4,7-dione], for which, in assay [1], the IC50 turned out to be 60 µM and the “concentration from which statistically significant cell growth inhibition started” value was 5 µM.
As for `CN1CC(=O)N2[C@H](c3c[nH]c4c3ccc3ccccc34)c3cc4c(cc3C[C@H]2C1=O)OCO4` [Analogue 3, (2S,8S)-6-methyl-2-{1H-naphtho[1,2-b]pyrrol-3-yl}-13,15-dioxa-3,6-diazatetracyclo[8.7.0.0^3,8.0^12,16]heptadeca-1(10),11,16-triene-4,7-dione], in assay [1], the IC50 came to 32 µM and the “concentration from which statistically significant cell growth inhibition started” value is 5 µM. The “apoptotic cell number versus control and Etoposide” value in assay [2] is “increasing in both early and late apoptotic cell number”. In assay [2] (50 uM), the “Early apoptosis, %” value was 15.21%; the “Late apoptosis/necrosis, %” value is 6.55%; the “Total, % (apoptosis)” value is 21.76%. Besides, in assay [2] (100 uM), the “Early apoptosis, %” value is given as 17.51%; the “Late apoptosis/necrosis, %” value is reported as 5.52%; the “Total, % (apoptosis)” value is 23.03%. Also, in assay [3] (50 uM), the “G0/G1, %” value is recorded as 67.52% and the “S + G2 + M, %” value was determined as 32.48%. Moreover, in assay [3] (100 uM), the “G0/G1, %” value is reported as 51.77% and the “S + G2 + M, %” value is 48.23%.
Take `CN1CC(=O)N2[C@H](c3cn(C)c4ccccc34)c3cc4c(cc3C[C@H]2C1=O)OCO4` [Analogue 4, (2S,8S)-6-methyl-2-(1-methyl-1H-indol-3-yl)-13,15-dioxa-3,6-diazatetracyclo-[8.7.0.0^3,8.0^12,16]heptadeca-1(10),11,16-triene-4,7-dione]: in assay [1], the IC50 was determined as 30 µM and the “concentration from which statistically significant cell growth inhibition started” value turned out to be 10 µM.
`CN1CC(=O)N2[C@H](c3cn(Cc4ccccc4)c4ccccc34)c3cc4c(cc3C[C@H]2C1=O)OCO4` [Analogue 5, (2S,8S)-2-(1-benzyl-1H-indol-3-yl)-6-methyl-13,15-dioxa-3,6-diazatetracyclo-[8.7.0.0^3,8.0^12,16]heptadeca-1(10),11,16-triene-4,7-dione]: the “effect on PC-3 cell number” value in assay [1] (48 hours (FIG. 12)) was “resulted in cell reduction”.
